Measured values as given in article PMC11228983, “Rapid Protein–Ligand Affinity Determination by Photoinduced Hyperpolarized NMR” (Journal of the American Chemical Society, 2024).
Residues, ends and D or L forms follow the SMILES beside them.

Experiments:
[1] = target: T1, PDZ2 domain of human tyrosine phosphatase 1E (hPTP1E) (Homo sapiens, UniProt Q12923); assay: Competition CIDNP-KD assay with photo-CIDNP-active reporter peptide; assay type: binding; conditions: reporter WVSAV 20 μM (KD,R 170 μM), 5 μM PDZ2; 1000 ms irradiation, single scan; read-out: Competition CIDNP-KD (KD,C), Hβ of reporter WVSAV
T1 construct: the constructs used for the PDZ2 domain of human tyrosine phosphatase 1E; polyhistidine (N); made in house; host or cells: Escherichia coli BL21 (DE3)
T1 sequence (Q12923 1368-1452 limits assumed): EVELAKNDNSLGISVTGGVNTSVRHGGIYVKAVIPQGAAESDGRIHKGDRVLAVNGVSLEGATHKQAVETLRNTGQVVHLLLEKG
Excerpt: Photo-CIDNP hyperpolarization is limited to a particular chemical space of ligands that contain heteroaromatics and heterosubstituted aromatic rings.[24],[29] To address the challenge of limited chemical space, we extend CIDNP-KD to measure the affinity of nonpolarizable ligands through competition with a polarizable reporter ligand R, whose affinity KD,R is known as depicted in Scheme 2. By adding a competitor C, the concentration and photo-CIDNP signal of the reporter ligand R* will increase, indicating the reduced amount of the complex PR* and, by extension, PR.[30]
To calculate the concentration of the ligand–protein complex in the presence of the binding competitor, the ratio of the amplification factors in the presence and absence of the competitor [drawing 6] […]
These competitor ligands lack a tryptophan residue, whereas the reporter ligands WVSAV and WQVSAV are photo-CIDNP-active due to the tryptophan tag. The hyperpolarized signal of WVSAV or WQVSAV in the presence of the PDZ2 domain was measured for increasing concentrations of the peptides QVSAV or ENEQVSAV, respectively. […]
Figure 3 KD determination of nonphoto-CIDNP-active peptides binding to a PDZ2 domain. […] The bound reporter population is plotted, calculated from the hyperpolarized tryptophan Hβ using eq 7. […] Each data point is measured with a single-scan experiment with a laser irradiation duration of (A) 1000 ms or (B) 2000 ms. […]

[2] = target: T1, PDZ2 domain of human tyrosine phosphatase 1E (hPTP1E); assay: 2D [1H,15N]-HSQC chemical shift perturbation titration; assay type: binding; conditions: 30 μM 15N PDZ2, pH 6.8, 298 K
Protocol: We compared the affinities of the peptides obtained via CIDNP-KD with the state-of-the-art 2D [^1H, ^15N]-HSQC titration experiments measured with 30 μM PDZ2 (Figure S3).
Expression and purification were carried out as in previously reported procedures. In short, expression in Escherichia coli cells (BL21 (DE3)) and purification via Ni-NTA chromatography as the constructs used for the PDZ2 domain of human tyrosine phosphatase 1E and human PIN1 both contained N-terminal polyhistidine tags. Both protein constructs were measured in an NMR buffer consisting of 50 mM NaCl, 20 mM KPO4, and 10% D2O at pH 6.8. For the control [^1H, ^15N]-HSQC experiments, the PDZ2 domain was expressed in ^15N-enriched minimal medium.[34],[43]
All photo-CIDNP and STD-NMR experiments were recorded at 298 K on a Bruker Avance III HD 600 MHz spectrometer equipped with a cryoprobe. The [^15N, ^1H] – HSQC titration experiments of the PDZ2 domain were performed also at 298 K on another Bruker Avance IIII HD 600 MHz spectrometer equipped with a cryoprobe and SampleJet.
Peak picking was performed with the maximal peak picking tool of Mnova software. Plotting, fitting, and data analysis was done in RStudio with the workflow described above. The [^15N, ^1H]-HSQC reference affinities were analyzed with CCPNMR3.1.[62] The backbone assignment was taken from BMRB 34688.
Fig. S3: 2D [15N, 1H]-HSQC titration of peptides to hPDZ2 domain. The 2D [ 15N, 1H]-
HSQC spectra of the titration series in presence of 30 µM hPDZ2 domain and the
corresponding observed chemical shift difference of A74 plotted versus the peptide
(1 picture or pasted object on this page, not shown here)

## CC(C)[C@H](NC(=O)[C@H](C)NC(=O)[C@H](CO)NC(=O)[C@@H](NC(=O)[C@@H](N)CCC(N)=O)C(C)C)C(=O)O [QVSAV] (H-QVSAV-OH)
[1]
  Kd: 580 ± 30 µM
[2]; 15N–1H moiety of A74, read-out: [1H,15N]-HSQC–CSP KD, NH of A74
  Kd: 155 ± 10 µM
[2]; range over residues, read-out: [1H,15N]-HSQC–CSP KD range of all residues showing chemical shift perturbation
  Kd: 90 to 750 µM
